Here are results for 33 compounds from patent US20250243186A1, “PIPERIDINYL INDOLE DERIVATIVES, PREPARATION METHODS AND MEDICINAL USES THEREOF” (HANSOH BIO LLC, priority 2021, published 2025).

For orientation: IC50 means the point on the concentration scale where inhibition reaches its midpoint.

Each structure is given as a SMILES string.

One data set deals with T1, Recombinant human Factor B catalytic domain (Homo sapiens (Human), UniProt P00751). Nature of the data set: Factor B binding assay by TR-FRET. As to conditions: Factor B TR-FRET IC50 (nM), 10 nM his-tagged Factor B catalytic domain, 100 nM tracer, 1 h.
T1 sequence (P00751 470-764): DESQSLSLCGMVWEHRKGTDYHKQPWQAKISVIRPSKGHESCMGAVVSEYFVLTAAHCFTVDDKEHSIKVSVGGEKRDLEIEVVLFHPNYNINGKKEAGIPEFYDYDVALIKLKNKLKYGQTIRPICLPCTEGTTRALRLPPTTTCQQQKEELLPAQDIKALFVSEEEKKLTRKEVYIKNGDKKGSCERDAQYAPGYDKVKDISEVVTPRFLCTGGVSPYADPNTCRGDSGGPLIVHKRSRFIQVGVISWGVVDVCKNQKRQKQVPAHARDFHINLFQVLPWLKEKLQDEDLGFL
Description: • 1. […] 5× Kinase Buffer A (Thermo Fisher, CAT #PV3189) • 3. LANCE Eu-W1024 Anti-6×His Antibody (PerkinElmer, CAT #AD0401) • 4.
DMSO (Thermo Fisher Scientific) • 6. Compounds—10 mM stock in DMSO • 7. Victor Nivo multimode plate reader (PerkinElmer) • 8.
Factor B binding affinity of each compound tested was determined using a time-resolved fluorescence resonance energy transfer (TR-FRET) technology. 10 nM recombinant his-tagged Factor B catalytic domain, varying concentrations of inhibitors, 4 nM LANCE Eu-W1024 Anti-6×His Antibody and 100 nM TR-FRET_tool2 tracer was incubated in 1× Kinase Buffer A for 1 h. Measurement was performed in a reaction volume of 15 μL by adding 5 μL of the test compound, 5 μL of Factor B/antibody mixture and 5 μL of tracer into white opaque 384-well assay plates.
Take `Cc1cc(C)c2[nH]ccc2c1CN1CCC2(CCCO2)CC1c1ccc(C(=O)O)cc1` (single isomer, unassigned) [2 (Isomer 3), 4-(8-((5,7-dimethyl-1H-indol-4-yl)methyl)-1-oxa-8-azaspiro[4.5]decan-7-yl)benzoic acid]: the IC50 is 507 nM.

With `COc1cc(C)c2[nH]ccc2c1C(C)N1CC2CCCC2C1c1ccc(C(=O)O)cc1` (single isomer, unassigned) [37 (Isomer 3), 4-(2-(1-(5-methoxy-7-methyl-1H-indol-4-yl)ethyl)octahydrocyclopenta[c]pyrrol-1-yl)benzoic acid], the IC50 amounted to 222 nM. On the same count and under the same terms, with `COc1cc(C)c2[nH]ccc2c1CN1CCC2(CCOC2)CC1c1ccc(C(=O)O)cc1` (single isomer, unassigned) [36 (Isomer 3), 4-(8-((5-methoxy-7-methyl-1H-indol-4-yl)methyl)-2-oxa-8-azaspiro[4.5]decan-7-yl)benzoic acid] the figure was 125 nM; with `Cc1cc(C2CC2)c(CN2CC3CCCC3C2c2ccc(C(=O)O)cc2)c2cc[nH]c12` (single isomer, unassigned) [32 (Isomer 1), 4-(2-((5-cyclopropyl-7-methyl-1H-indol-4-yl)methyl)octahydrocyclopenta[c]pyrrol-1-yl)benzoic acid], 26.3 nM; with `Cc1cc(C)c2[nH]ccc2c1CN1CC2(CCCCC2)C1c1ccc(C(=O)O)cc1` (stereo not shown) [Example 16, 4-(2-((5,7-dimethyl-1H-indol-4-yl)methyl)-2-azaspiro[3.5]nonan-1-yl)benzoic acid], 305 nM. For `COc1cc(C)c2[nH]ccc2c1CN1CC2(CCOC2)CC1c1ccc(C(=O)O)cc1` (single isomer, unassigned) [28 (Isomer 2), 4-(7-((5-methoxy-7-methyl-1H-indol-4-yl)methyl)-2-oxa-7-azaspiro[4.4]nonan-8-yl)benzoic acid], the IC50 was determined as 81.5 nM. Consider `COc1cc(C)c2[nH]ccc2c1CN1CC2CC(C(F)F)CC2C1c1ccc(C(=O)O)cc1` (single isomer, unassigned) [39 (Isomer 2), 4-(5-(difluoromethyl)-2-((5-methoxy-7-methyl-1H-indol-4-yl)methyl)octahydrocyclopenta[c]pyrrol-1-yl)benzoic acid], for which the IC50 turned out to be 4.1 nM. In the case of `COc1cc(C)c2[nH]ccc2c1CN1CCC2(CCOC2)CC1c1ccc(C(=O)O)cc1` (single isomer, unassigned) [36 (Isomer 2), 4-(8-((5-methoxy-7-methyl-1H-indol-4-yl)methyl)-2-oxa-8-azaspiro[4.5]decan-7-yl)benzoic acid], the IC50 was 16.6 nM. For `COc1cc(C)c2[nH]ccc2c1CN1CC2CC3(CC3)CC2C1c1ccc(C(=O)O)cc1` (single isomer, unassigned) [29 (Isomer 2), 4-(2-((5-methoxy-7-methyl-1H-indol-4-yl)methyl)hexahydro-1H-spiro[cyclopenta[c]pyrrole-5,1′-cyclopropan]-1-yl)benzoic acid], the IC50 was determined as 43.7 nM. Still for that read-out and setting: the same measure for `COc1cc(C)c2[nH]ccc2c1CN1CCC2(CCC1c1ccc(C(=O)O)cc1)CC2(F)F` (single isomer, unassigned) [24 (Isomer 2), 4-(1,1-difluoro-6-((5-methoxy-7-methyl-1H-indol-4-yl)methyl)-6-azaspiro[2.6]nonan-7-yl)benzoic acid]: 729 nM. For `COc1cc(C)c2[nH]ccc2c1CN1CC2CCCC2C1c1ccc(C(=O)O)cc1` (single isomer, unassigned) [13 (Isomer 1), 4-(2-((5-methoxy-7-methyl-1H-indol-4-yl)methyl)octahydrocyclopenta[c]pyrrol-1-yl)benzoic acid], the IC50 was 17.4 nM. For `COc1cc(C)c2[nH]ccc2c1CN1CCCCC1c1ccc(C(=O)O)cc1C(F)F` (single isomer, unassigned) [26 (Isomer 1), 3-(difluoromethyl)-4-(1-((5-methoxy-7-methyl-1H-indol-4-yl)methyl)piperidin-2-yl)benzoic acid], the IC50 turned out to be 31.5 nM. `Cc1cc(C)c2[nH]ccc2c1CN1CCC(CF)CC1c1ccc(C(=O)O)cc1` (single isomer, unassigned) [7 (Isomer 1), 4-(1-((5,7-dimethyl-1H-indol-4-yl)methyl)-4-(fluoromethyl)piperidin-2-yl)benzoic acid]: the IC50 is 313 nM.

As for `COc1cc(C)c2[nH]ccc2c1CN1CCC2(CCC1c1ccc(C(=O)O)cc1)CC2(F)F` (single isomer, unassigned) [24 (Isomer 1), 4-(1,1-difluoro-6-((5-methoxy-7-methyl-1H-indol-4-yl)methyl)-6-azaspiro[2.6]nonan-7-yl)benzoic acid], the IC50 was determined as 1410 nM. With `COc1cc(C)c2[nH]ccc2c1CN1C[C@@H]2CC(C)(C)C[C@@H]2C1c1ccc(C(=O)O)cc1` (single isomer, unassigned) [34 (Isomer 1)], the IC50 amounted to 7.7 nM. On to `COc1cc(C)c2[nH]ccc2c1CN1C[C@@H]2CC(C)(C)C[C@@H]2C1c1ccc(C(=O)O)cc1` (single isomer, unassigned) [34 (Isomer 2)], for which the IC50 was 180 nM. Regarding `COc1cc(C)c2[nH]ccc2c1CN1CC2CC(C(F)F)CC2C1c1ccc(C(=O)O)cc1` (single isomer, unassigned) [39 (Isomer 1), 4-(5-(difluoromethyl)-2-((5-methoxy-7-methyl-1H-indol-4-yl)methyl)octahydrocyclopenta[c]pyrrol-1-yl)benzoic acid], the IC50 worked out at 2.6 nM.

Consider `COc1cc(C)c2[nH]ccc2c1C(C)N1CC2CCCC2C1c1ccc(C(=O)O)cc1` (single isomer, unassigned) [37 (Isomer 1), 4-(2-(1-(5-methoxy-7-methyl-1H-indol-4-yl)ethyl)octahydrocyclopenta[c]pyrrol-1-yl)benzoic acid], for which the IC50 was 322 nM.

Consider `COc1cc(C)c2[nH]ccc2c1CN1CCC2(CC1c1ccc(C(=O)O)cc1)CC2(F)F` (single isomer, unassigned) [8 (Isomer 2), 4-(1,1-difluoro-6-((5-methoxy-7-methyl-1H-indol-4-yl)methyl)-6-azaspiro[2.5]octan-5-yl)benzoic acid], for which the IC50 was 245 nM.

For `COc1cc(C)c2[nH]ccc2c1CN1CC2(CCOCC2)CC1c1ccc(C(=O)O)cc1` (stereo not shown) [Example 30, 4-(2-((5-methoxy-7-methyl-1H-indol-4-yl)methyl)-8-oxa-2-azaspiro[4.5]decan-3-yl)benzoic acid], the IC50 was 132 nM. On to `COc1cc(C)c2[nH]ccc2c1CN1CC2CC(C(F)F)CC2C1c1ccc(C(=O)O)cc1` (single isomer, unassigned) [39 (Isomer 3), 4-(5-(difluoromethyl)-2-((5-methoxy-7-methyl-1H-indol-4-yl)methyl)octahydrocyclopenta[c]pyrrol-1-yl)benzoic acid], for which the IC50 was determined as 7.3 nM. Turning to `Cc1cc(C)c2[nH]ccc2c1CN1CCC(C(F)F)CC1c1ccc(C(=O)O)cc1` (single isomer, unassigned) [6 (Isomer 2), 4-(4-(difluoromethyl)-1-((5,7-dimethyl-1H-indol-4-yl)methyl)piperidin-2-yl)benzoic acid], the IC50 was 142 nM.

Take `Cc1cc(C)c2[nH]ccc2c1CN1CCC(CCCO)=CC1c1ccc(C(=O)O)cc1` (single isomer, unassigned) [2 (Isomer 2), 4-(1-((5,7-dimethyl-1H-indol-4-yl)methyl)-4-(3-hydroxypropyl)-1,2,5,6-tetrahydropyridin-2-yl)benzoic acid]: the IC50 turned out to be 360 nM.

Staying with this data set, now noted: read-out: Factor B TR-FRET IC50; 10 nM his-tagged Factor B catalytic domain, 100 nM tracer, 1 h.
In the case of `Cc1cc(C)c2[nH]ccc2c1CN1C[C@@H]2CCCCC2C1c1ccc(C(=O)O)cc1` (stereo in doubt) [Example 10, 4-(2-((5,7-dimethyl-1H-indol-4-yl)methyl)octahydro-1H-isoindol-1-yl)benzoic acid], the IC50 came out at 265 nM. For the compound `COc1cc(C)c2[nH]ccc2c1CN1CCC2(C[C@H]1c1ccc(C(=O)O)c(F)c1)CC(F)(F)C2` [Example 64], the IC50 was < 2 nM.

In the case of `COc1cc(C)c2[nH]ccc2c1CN1CC(CF)CC1c1ccc(C(=O)O)cc1` (stereo not shown) [Example 21, 4-(4-(fluoromethyl)-1-((5-methoxy-7-methyl-1H-indol-4-yl)methyl)pyrrolidin-2-yl)benzoic acid], the IC50 was 844 nM. Still for that read-out and setting: the same measure for `Cc1cc(C)c2[nH]ccc2c1CN1CCC(CCO)=CC1c1ccc(C(=O)O)cc1` (stereo not shown) [Example 4, 4-(1-((5,7-dimethyl-1H-indol-4-yl)methyl)-4-(2-hydroxyethyl)-1,2,5,6-tetrahydropyridin-2-yl)benzoic acid]: 173 nM; for `Cc1cc(C(=O)O)ccc1[C@@H]1CC2(CCN1Cc1c(C3CC3)cc(C)c3[nH]ccc13)CC(F)(F)C2` [Example 83]: < 2 nM.

As to `COc1cc(C)c2[nH]ccc2c1CN1CCC2(C[C@H]1c1ccc3c(C(=O)O)cccc3c1)CC(F)(F)C2` [Example 84], the IC50 worked out at 3.1 nM.

Take `C=C(F)c1cc(C)c2[nH]ccc2c1CN1CCC2(C[C@H]1c1ccc(C(=O)O)cc1)CC(F)(F)C2` [Example 81]: the IC50 was 47.3 nM. Consider `Cc1cc(C)c2[nH]ccc2c1CN1CCC2(C[C@H]1c1ccc(C(=O)O)cc1)CC(F)(F)C2` (single isomer, unassigned) [76 (Isomer 1)], for which the IC50 is < 2 nM. For the compound `Cc1cc(C)c2[nH]ccc2c1CN1CC2CC2C1c1ccc(C(=O)O)cc1` (stereo not shown) [Example 1, 4-(3-((5,7-dimethyl-1H-indol-4-yl)methyl)-3-azabicyclo[3.1.0]hexan-2-yl)benzoic acid], the IC50 turned out to be 923 nM. Still for that read-out and setting: with `Cc1cc(C2CC2)c(CN2CCC3(C[C@H]2c2ccc(C(=O)O)cc2)CC(F)(F)C3)c2cc[nH]c12` [Example 53] the figure was < 2 nM.

For the next data set, the target named is T1, Recombinant human Factor B catalytic domain. Description: Target residence time of Factor B inhibitors by surface plasmon resonance (SPR). To be noted: binding half-life ln2/koff. (In general: SPR reads the build-up and loss of mass on a sensor chip optically.)
Description: PBS-P+ Buffer 10× (Cytiva, CAT #28995084) • 3. Series S Sensor Chip NTA (Cytiva, CAT #BR100532) • 4. Amine Coupling Kit (Cytiva, CAT #BR100050) • 5. […] Greiner 96 well plates, polypropylene (Sigma-Aldrich, CAT #M7310-100EA) • 7. […] Biacore 8 k (Cytiva)
Biacore 8 k instrument was primed using 1× PBS-P+ buffer before docking a Cytiva NTA chip. […] The protein ligand was further crosslinked to sensorchip surface by amine coupling kit. Immobilization and binding experiment were performed at room temperature.
After changing buffer to 1× PBS-P+ buffer with 2% (v/v) DMSO, a pre-run was performed for a period of at least 30 min at a flow rate of 30 μl/min to obtain a stable surface. […] A flow rate of 30 μl/min was used. A blank run with the same conditions was performed before the compound was injected.
The SPR sensorgrams were analyzed with Biacore Insight Evaluation Software by using a method of double referencing. The resulting curve was fitted with a 1:1 binding model. Compounds that bound according to an induced fit model were fitted with a two-state reaction model. The kinetic constants (kon, koff, KD) of replicates were averaged. Binding half-life (t1/2) for the 1:1 binding model and two-state reaction model was calculated from the dissociation constant koff with the formula t1/2=ln2/koff.
Turning to `Cc1cc(C2CC2)c(CN2CCC3(C[C@H]2c2ccc(C(=O)O)cc2)CC(F)(F)C3)c2cc[nH]c12` [Example 53], the “t1/2” value is 1.214 h.
